PMC7179297, “Preclinical Antimalarial Combination Study of M5717, a Plasmodium falciparum Elongation Factor 2 Inhibitor, and Pyronaridine, a Hemozoin Formation Inhibitor” (Antimicrobial Agents and Chemotherapy, 2020)
pEC50: −log10 of the molar value. Values joined by “and” are separate entries in the source; they are usually repeats but may differ in a detail not shown here. Equal values may be shown once. Marks after values point to notes of the source that are not given here.

How the values were obtained:
[1] = tested on: P. falciparum NF54 strain; test: [3H]hypoxanthine incorporation assay, individual drugs; assay type: cell-based; conditions: Plasmodium falciparum, 72 h
Experimental: IC50 and drug interaction studies were performed as previously described ([27], [28]). […] Cultures were harvested onto glass fiber filters, washed, and the radioactivity was counted using a MicroBetaplate liquid scintillation counter and recorded as counts per minute (cpm) per well. Results are expressed as a percentage of the untreated controls (see the supplemental material for more details). page 2: 25 In vitro isobolograms 26 Compounds were tested against intraerythrocytic forms of P. falciparum derived from asynchronous stock cultures 27 of lab strain NF54 (Schiphol airport strain of unknown origin), as previously described.i,ii The culture medium was […] 29 mM HEPES, 25 mM NaHCO3 (pH 7.3), 0.36 mM hypoxanthine and 100 μg/mL neomycin. Human type A+ 30 erythrocytes served as host cells. […] 31 in humidified modular chambers. Testing of the individual drugs was carried out in 96-well microtiter plates. The 32 compounds were dissolved in DMSO (10 mg/mL), prediluted in hypoxanthine-free culture medium and titrated in […] After addition of an equal volume of parasite culture with a parasitemia of […] Parasite growth was measured by the incorporation of radiolabelled [3H]hypoxanthine (0.25 µCi in […] 37 assay duration) prior to the termination of the test. Cultures were harvested onto glass-fiber filters and washed with 38 distilled water. The radioactivity was counted using a MicroBetaplate liquid scintillation counter (Wallac, Zürich, 39 Switzerland) and the results recorded as counts per minute (cpm) per well at each drug concentration and expressed 40 as percentage of the untreated controls. Fifty percent inhibitory concentrations (IC50) were determined by linear 41 interpolation.v 42 43 For data interpretation, the IC50s of the drugs in combination were expressed as fractions of the IC50s of the drugs 44 alone. These fractions were called “Fractional Inhibitory Concentrations” (FIC) for drug A and for drug B, 45 respectively. 46 FIC Drug A = IC50 A (B) IC50 A […] 49 50 Formulation 51 Pyronaridine (tetraphosphate salt) and […] (succinate salt) were solubilized in a vehicle consisting of 70% […] 54 55 2

[2] = tested on: P. falciparum Pf3D70087/N9; test: Murine P. falciparum SCID model, efficacy and recrudescence; assay type: in vivo, Plasmodium falciparum; conditions: for Parasitemia Day 3: day 3 = day of treatment
Experimental: Compound efficacy was assessed in the murine P. falciparum SCID model essentially as described by Jimenez-Díaz et al. ([20]). Briefly, alone or in combination, M5717 (succinate salt by Merck KGaA [MSC2576186-B4]) and pyronaridine (tetraphosphate salt, Sigma-Aldrich [P0049]) were formulated in 7% Tween80, 3% ethanol and administered to a cohort of age-matched female immunodeficient NOD-scid IL-2Rγ^null mice (Jackson Laboratory, Bar Harbor, ME). These mice had been previously engrafted with human erythrocytes (generously provided by the blood bank in Zürich, Switzerland). Prior to compound treatment, mice were intravenously infected with 2 × 10^7 P. falciparum Pf3D7^0087/N9 -infected erythrocytes (day 0) ([30]). On day 3 after infection, mice, in groups of 2 to 5, were randomly allocated to treatments that were administered with a single oral gavage at 10 ml/kg (Table 2 and Fig. 2). Parasitemia was measured by microscopy. Chimerism was monitored by flow cytometry using an anti-murine erythrocyte TER119 monoclonal antibody (Pharmingen, San Diego, CA) and SYTO-16 and then analyzed by flow cytometry in serial blood samples (2 μl) collected every 2 to 3 days until the completion of the experiment (Table 2, day 60 and Fig. 2, day 80). Parasite recrudescence was detected by microscopy. Once parasitemia exceeded 0.5%, then 100 to 500 μl of blood was collected and stored at –80°C for subsequent sequence analysis. Animals received a second treatment with the same dose and if applicable the same combination of compounds as previously administered in that dose group (Fig. 2). Efficacy was again monitored by microscopy. If recrudescence occurred again then new blood samples were stored at –80°C.
Time-to-recrudescence data were analyzed using the Kaplan-Meier method. Log-rank test was performed for two-group comparisons. Kaplan-Meier curves and log-rank test P values, as well as median estimates for time to recrudescence, are presented (SAS, Version 9.4. Cary, NC: SAS Institute Inc.; 2014).

[3] = M5717 3 mg/kg single oral dose (entry 1)
[4] = M5717 6 mg/kg single oral dose (entry 2)
[5] = M5717 12 mg/kg single oral dose (entry 3)
[6] = M5717 30 mg/kg single oral dose (entry 4)
[7] = pyronaridine 6 mg/kg single oral dose (entry 5)
[8] = pyronaridine 12 mg/kg single oral dose (entry 6)
[9] = pyronaridine 12 mg/kg single oral dose (entry 6), LLQ <0.01%
[10] = pyronaridine 36 mg/kg single oral dose (entry 7)
[11] = pyronaridine 36 mg/kg single oral dose (entry 7), LLQ <0.01%

O=C(NCCN1CCCC1)c1cc(-c2ccc(CN3CCOCC3)cc2)nc2ccc(F)cc12 [M5717]
pEC50 [1]: 9.52 | Parasitemia Day 4 [2, 3]: 0.65% | Parasitemia Day 5 [2, 3]: 0.49% | Parasitemia Day 6 [2, 3]: 0.19% | Mean DoR (day of recrudescence) ([2]; M5717 3 mg/kg single oral dose (entry 1), uncorrected): 6 days postinfection | Parasitemia Day 3 [2, 3]: 1.2% | Parasitemia Day 4 [2, 4]: 1.4% | Parasitemia Day 5 [2, 4]: 1.03% | Parasitemia Day 6 [2, 4]: 0.46% | Mean DoR (day of recrudescence) ([2]; M5717 6 mg/kg single oral dose (entry 2), uncorrected): 17 days postinfection | Parasitemia Day 3 [2, 4]: 1.26% | mice in which resistance evolved ([2]; M5717 12 mg/kg arm): 5/5 | Parasitemia Day 4 [2, 5]: 0.58% | Parasitemia Day 5 [2, 5]: 0.53% | Parasitemia Day 6 [2, 5]: 0.11% | Mean DoR (day of recrudescence) ([2]; M5717 12 mg/kg single oral dose (entry 3), uncorrected): 24 days postinfection | Parasitemia Day 3 [2, 5]: 0.81% | median time to recrudescence ([2]; M5717 12 mg/kg single oral dose, all mice n = 5, Kaplan-Meier, 12 mg/kg): 19 days | day postinfection at which LLQ was reached ([2]; M5717 12 mg/kg single oral dose, n = 5 (Fig. 2A)): 8 days | median time to recrudescence ([2]; M5717 12 mg/kg, mice showing no response to retreatment (M1, M2, M3, n = 3)): 18 days | response to retreatment with the same dosing regimen ([2]; M5717 12 mg/kg, mice with early recrudescence (D17, D18, D19)): not susceptible | response to retreatment with the same dosing regimen ([2]; M5717 12 mg/kg, mice with later recrudescence (D23, D24)): responded partially | median time to recrudescence ([2]; M5717 12 mg/kg, mice with later recrudescence (M4 and M5, n = 2)): 23.5 days | Parasitemia Day 4 [2, 6]: 0.73% | Parasitemia Day 5 [2, 6]: 0.54% | Parasitemia Day 6 [2, 6]: 0.21% | Mean DoR (day of recrudescence) ([2]; M5717 30 mg/kg single oral dose (entry 4), uncorrected): 24 days postinfection | Parasitemia Day 3 [2, 6]: 0.89% | Parasitemia for the individual mice at blood draw ([2]; M5717 1x30 mg/kg single oral dose, recrudescent samples 1.1 and 1.2): 3.25% and 0.50% | Recrudescence day post infection ([2]; M5717 1x30 mg/kg single oral dose, samples 1.1 and 1.2): 24 | breakpoint between both phases of biphasic clearance of parasitemia ([2]; M5717 alone at 3, 6, 12 and 30 mg/kg): around 48 h

COc1ccc2nc3cc(Cl)ccc3c(Nc3cc(CN4CCCC4)c(O)c(CN4CCCC4)c3)c2n1 [pyronaridine]
pEC50 [1]: 8.46 | Parasitemia Day 4 [2, 7]: 0.09% | Parasitemia Day 5 [2, 7]: 0.01% | Parasitemia Day 6 ([2]; pyronaridine 6 mg/kg single oral dose (entry 5), LLQ <0.01%): 0.00^d % | Parasitemia Day 3 [2, 7]: 0.89% | Parasitemia Day 4 [2, 8]: 0.13% | Mean DoR (day of recrudescence) ([2]; pyronaridine 12 mg/kg single oral dose (entry 6), uncorrected): 35 days postinfection | Parasitemia Day 5 [2, 9]: 0.00^d % | Parasitemia Day 6 [2, 9]: 0.00^d % | Parasitemia Day 3 [2, 8]: 1.51% | Parasitemia Day 4 [2, 10]: 0.12% | Parasitemia Day 5 [2, 11]: 0.00^d % | Parasitemia Day 6 [2, 11]: 0.00^d % | Parasitemia Day 3 [2, 10]: 1.61% | Mean DoR (day of recrudescence) ([2]; pyronaridine 36 mg/kg single oral dose (entry 7), experiment ended at day 60 with parasitemia <0.01%): ≥60^e days postinfection
